≈ marks a conversion by molar mass, not a printed value. Where two headings read alike, the source gives them in different places.
Experiments:
Candida = test: Anti-Candida activity (summary); assay type: cell-based; details: Table 14;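 also: Letter grades where Y means active and y means less active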
E. coli [1] = test: Growth inhibition of E. coli during 24 hours exposure; assay type: cell-based, Escherichia coli; details: 24 hours exposure, Table 4
Procedure: (§1) Doses inhibiting growth in 50% were estimated by plotting concentration o
(§2) a logarithmic scale and percent of growth inhibition for 24 hours exposur
(§3) on a probability scale.

P815 mastocytoma = test: LC50 (24 hrs.), doses required to inhibit growth in 50%, different method; assay type: cell-based; details: Mus musculus, P815, 24 h
3T3 = test: Growth inhibition of 3T3 during 24 hours exposure; assay type: cell-based, Mouse; details: Mus musculus, NIH3T3; 24 hours exposure; Table 1; read-out: Concentration causing 50% growth inhibition
Procedure: (§4) 3T3 = Mouse fibroblasts
as §1, §2, §3

[2] = Growth inhibition of 3T3 during 24 hours exposure; assay type: cell-based, Mouse; details: mouse, 3t3 cells; Table 2; read-out: Toxicity Index, LC50 3T3 / LC50 C. albicans
Procedure: as §4, §1, §2, §3

WEHI-3 = test: Growth inhibition of WEHI-3 during 24 hours exposure; assay type: cell-based, Mouse; details: Mus musculus, WEHI-3; 24 hours exposure; Table 1; read-out: Concentration causing 50% growth inhibition
Procedure: (§5) WEHl3 = Mouse myelomonocyte
as §1, §2, §3

[3] = as above; assay type: cell-based, Mouse; details: mouse, wehi-3 cells; Table 2; read-out: Toxicity Index, LC50 WEHI-3 / LC50 C. albicans
Procedure: as §5, §1, §2, §3

C. albicans [4] = test: LC50 (24 hrs.), doses required to inhibit growth in 50%, different method; assay type: cell-based, Candida albicans; details: for IC50: Candida albicans, 24 hrs.
From the text: Doses Required to Inhibit Growth of C. albicans
in 50% During 24 hrs. (ng/ml)

P. aeruginosa [5] = test: Growth inhibition of P. aeruginosa during 24 hours exposure; assay type: cell-based, Pseudomonas aeruginosa; details: for Minimal concentration causing 100% growth inhibition: Table 3
Aspergillus fumigatus = test: Sensitivity of Aspergillus fumigatus, agar diffusion method; assay type: cell-based; details: disc diameter 6 mm, read-out: Zone of Growth Inhibition
From the text: Results were obtained by agar diffusion method. Disc diameter - 6 mm. -* = no zone over disc diameter.

C. albicans [6] = test: Growth inhibition of C. albicans during 24 hours exposure; assay type: cell-based, Candida albicans; details: 24 hours exposure, Table 3
P. aeruginosa [7] = test: Growth inhibition of P. aeruginosa during 24 hours exposure; assay type: cell-based, Pseudomonas aeruginosa; details: 24 hours exposure, Table 4
Procedure: as §1, §2, §3

E. coli [8] = test: Growth inhibition of E. coli during 24 hours exposure; assay type: cell-based, Escherichia coli; details: 24 hours exposure, Table 3
Aspergillus = test: Anti-Aspergillus activity (summary); assay type: cell-based; details: Table 14;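 also: Letter grades where Y means active and y means less active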
L1210 = test: Growth inhibition of L1210 during 24 hours exposure; assay type: cell-based, Mouse; details: Mus musculus, L1210; 24 hours exposure; Table 1; read-out: Concentration causing 50% growth inhibition
Procedure: (§6) L1210 = Mouse lymphocytic leukemia
as §1, §2, §3

[9] = as above; assay type: cell-based, Mouse; details: mouse, l1210 cells; Table 2; read-out: Toxicity Index, LC50 L1210 / C. albicans
Procedure: as §6, §1, §2, §3

bacteria = test: Anti-bacterial activity (summary); assay type: cell-based; details: Table 14
C. albicans [10] = test: Growth inhibition of C. albicans during 24 hours exposure; assay type: cell-based, Candida albicans; details: 24 hours exposure; for IC50: Candida albicans
Procedure: as §1, §2, §3

P815 = test: Growth inhibition of P815 mastocytoma during 24 hours exposure; assay type: cell-based, Mouse; details: 24 hours exposure
Procedure: (§7) P815 = Mouse mastocytoma […]
as §2, §3

[11] = as above; assay type: cell-based, Mouse; details: mouse, p815 cells
Procedure: as §7, §2, §3

Sindbis virus = details: only in presence of long wave ultraviolet radiation; cited from earlier work
[12] = tested on: murine cytomegalovirus and Sindbis virus; details: phototoxic activity; cited from earlier work
murine cytomegalovirus = details: only in presence of long wave ultraviolet radiation; cited from earlier work
[13] = tested on: above organisms, as well as CHO cells; details: UV-A light required; cited from earlier work
[14] = Table 7, read-out: LC50 (24 hrs.), dose required to inhibit growth in 50%
[15] = Table 13, read-out: Lc50 24 hrs.

CC#CC1=CC=C(C#CC#CC(O)CO)SS1 (stereo not drawn) [Thiarubrine E]
Anti-Candida (Candida): Y | IC50 (E. coli [1]; Escherichia coli, read-out: Minimal concentration causing 50% growth inhibition): 0.015 µg/mL (≈ 0.0572 µM) | IC50 (P815 mastocytoma; read-out: LC50 (24 hrs.), dose required to inhibit growth in 50%): 0.028 µg/mL (≈ 0.107 µM) | IC50 (3T3): 0.12 µg/mL (≈ 0.457 µM) | selectivity ratio at 24 h [2]: 86 | IC50 (WEHI-3): 0.04 µg/mL (≈ 0.152 µM) | selectivity ratio at 24 h [3]: 28 | Inhibition of growth of Candida albicans (C. albicans [4]): nanogram/ml range | IC50 (C. albicans [4]; [14]): 0.006 µg/mL (≈ 0.0229 µM) | MIC (P. aeruginosa [5]; Pseudomonas aeruginosa, Table 3, read-out: Minimal concentration causing 100% growth inhibition): 0.625 µg/mL (≈ 2.38 µM) | zone of inhibition at 0.01 µg/disc (Aspergillus fumigatus; 10 ng/disc): 17 mm | zone of inhibition at 0.1 µg/disc (Aspergillus fumigatus; 100 ng/disc): 36 mm | zone of inhibition at 1 µg/disc (Aspergillus fumigatus; 1,000 ng/disc): 50 mm | zone of inhibition at 10 µg/disc (Aspergillus fumigatus; 10,000 ng/disc): 50 mm | MIC (C. albicans [6]; Candida albicans, read-out: Minimal concentration causing 100% growth inhibition): 0.0048 µg/mL (≈ 0.0183 µM) | IC50 (P. aeruginosa [7]; Pseudomonas aeruginosa, read-out: Minimal concentration causing 50% growth inhibition): 0.28 µg/mL (≈ 1.07 µM) | MIC (E. coli [8]; Escherichia coli, read-out: Minimal concentration causing 100% growth inhibition): 0.019 µg/mL (≈ 0.0724 µM) | Anti-Aspergillus (Aspergillus): Y | IC50 (L1210): 0.027 µg/mL (≈ 0.103 µM) | selectivity ratio at 24 h [9]: 19 | Anti-bacterial (bacteria): Y | IC50 (C. albicans [10]; Table 1, read-out: Concentration causing 50% growth inhibition): 0.0014 µg/mL (≈ 0.00534 µM) | IC50 (C. albicans [10]; Table 4, read-out: Minimal concentration causing 50% growth inhibition): 0.0014 µg/mL (≈ 0.00534 µM) | IC50 (P815; Mus musculus, P815, Table 1, read-out: Concentration causing 50% growth inhibition): 0.024 µg/mL (≈ 0.0915 µM) | IC100 (P815; Mus musculus, P815, Table 3, read-out: Minimal concentration causing 100% growth inhibition): 0.312 µg/mL | IC50 (P815; Mus musculus, P815, Table 4, read-out: Minimal concentration causing 50% growth inhibition): 0.024 µg/mL (≈ 0.0915 µM) | selectivity ratio at 24 h ([11]; 50% growth inhibition, Table 4, read-out: Ratio of concentration needed to inhibit growth in 50%, P815 vs C. albicans): 17 | selectivity ratio at 24 h ([11]; 100% growth inhibition, Table 3, read-out: Ratio of minimal concentration causing 100% growth inhibition, P815 line vs C. albicans): 65 | selectivity ratio at 24 h ([11]; Table 2, read-out: Toxicity Index, LC50 P815 / LC50 C. albicans): 17

c1csc(-c2ccc(-c3cccs3)s2)c1 [alpha-terthienyl]
Toxicity to virus (Sindbis virus): extremely toxic | Order of potency [12]: alpha-terthienyl thiarubrine-A > phenylheptatriyne > ACBP-thiophene > thiophene-A | Toxicity to virus (murine cytomegalovirus): extremely toxic

CC#CC1=CC=C(C#CC#CC(O)CCl)SS1 (stereo not drawn) [Thiarubrine G]
Anti-Candida (Candida): Y | IC50 (P815 mastocytoma; read-out: Lc50 24 hrs.): 0.09 µg/mL (≈ 0.321 µM) | Inhibition of growth of Candida albicans (C. albicans [4]): nanogram/ml range | IC50 (C. albicans [4]; [15]): 0.008 µg/mL (≈ 0.0285 µM) | Anti-Aspergillus (Aspergillus): Y | Anti-bacterial (bacteria): Y

Clc1ccc(COC(Cn2ccnc2)c2ccc(Cl)cc2Cl)cc1 (stereo not drawn) [Econazole, reference compound]
IC50 (C. albicans [4]; [14]): 0.056 µg/mL (≈ 0.147 µM)

Gentamycin [reference compound]
Minimal concentration causing 50% growth inhibition (E. coli [1]): 0.37 µg/mL | Minimal concentration causing 100% growth inhibition (P. aeruginosa [5]): 2.5 µg/mL | Minimal concentration causing 50% growth inhibition (P. aeruginosa [7]): 1.0 µg/mL | Minimal concentration causing 100% growth inhibition (E. coli [8]): 1.25 µg/mL

C=CC#CC#Cc1ccc(C#CC)s1 [thiophene A]
Phototoxicity [13]: phototoxic, requiring UV-A light for biological activity | Order of potency [12]: alpha-terthienyl thiarubrine-A > phenylheptatriyne > ACBP-thiophene > thiophene-A

C=C/C=C/C#CC1=CC=C(C#CC)SS1 [Thiarubrine C, reference compound]
Anti-Candida (Candida): Y | Anti-Aspergillus (Aspergillus): Y | Anti-bacterial (bacteria): Y

CC#Cc1ccc(C#CC#CC(O)CO)s1 (stereo not drawn) [Thiophene E]
Minimal concentration causing 50% growth inhibition (E. coli [1]): > 5.0 µg/mL | Minimal concentration causing 100% growth inhibition (P. aeruginosa [5]): > 5.0 µg/mL | Minimal concentration causing 100% growth inhibition (C. albicans [6]): > 5.0 µg/mL | Minimal concentration causing 50% growth inhibition (P. aeruginosa [7]): > 5.0 µg/mL | Minimal concentration causing 100% growth inhibition (E. coli [8]): > 5.0 µg/mL | Minimal concentration causing 50% growth inhibition (C. albicans [10]; Table 4): 4.5 µg/mL | Minimal concentration causing 100% growth inhibition (P815; Table 3): > 5.0 µg/mL | Minimal concentration causing 50% growth inhibition (P815; Table 4): 4.0 µg/mL

C=CC#CC#CC1=CC=C(C#CCO)SS1 [Thiarubrine H]
Anti-Candida (Candida): Y | IC50 (P815 mastocytoma; read-out: Lc50 24 hrs.): 0.059 µg/mL (≈ 0.241 µM) | Inhibition of growth of Candida albicans (C. albicans [4]): nanogram/ml range | IC50 (C. albicans [4]; [15]): 0.004 µg/mL (≈ 0.0164 µM)

C=CC#CC1=CC=C(C#CC#CC)SS1 [Thiarubrine B, 3 (pent-3-yn-1-ynyl) 6 (3-buten-1-ynyl)-1,2-dithiacyclohexa-3,5-diene, reference compound]
Anti-Candida (Candida): Y | Anti-Aspergillus (Aspergillus): Y | Anti-bacterial (bacteria): Y

CC#CC1=CC=C(C#CC#CC(Cl)CO)SS1 (stereo not drawn) [Thiarubrine F]
Anti-Candida (Candida): Y | IC50 (P815 mastocytoma; read-out: Lc50 24 hrs.): 0.14 µg/mL (≈ 0.499 µM) | Inhibition of growth of Candida albicans (C. albicans [4]): nanogram/ml range | IC50 (C. albicans [4]; [15]): 0.006 µg/mL (≈ 0.0214 µM) | Anti-Aspergillus (Aspergillus): Y | Anti-bacterial (bacteria): Y
